Measured values published in patent US9073893B2, “3-Oxo-2,3-dihydro-1H-indazole-4-carboxamide derivatives as PARP-1 inhibitors” (priority 2011, dated 2015).

Key:
[1] = molecular target: PARP-3 (Homo sapiens (Human), UniProt Q9Y6F1); settings: probe P1; for DC50: read-out: PARP-3 (DC50 μM); for Kd: read-out: PARP-3 (Kd μM)
Protocol: (§1) Affinity evaluation of the tested compounds and their selectivity with respect to the different PARP isoforms of interest was assessed in a displacement assay.
(§2) a) providing a reaction mixture containing:
(§3) the PARP protein isoform under investigation,
a compound of formula (IP):
(§4) wherein R11 is hydrogen or a methyl group, B is (CH2)n—NH group wherein n is 2 to 6; m is 0 or 1 and X^− is a counterion, and
serial dilutions of the test compound;
(§5) b) comparing the polarization signal generated in the absence of the test compound with the one generated in the presence of different concentrations of the test compound, and
(§6) c) evaluating the ability of the test compound to displace the compound of formula (IP) as defined above indicated from a decreased fluorescence polarization level.
(§7) The 5H-phenanthridin-6-one-derived probe (IP) was selected for its capability of binding to the PARP proteins, both encompassing full-length native proteins and fragment thereof.
(§8) The polarization signal can be measured, e.g., by a plate reader such as the Saphire2 (Tecan). Data analysis was performed, e.g., by using the Dynafit software. Displacement data were also fitted, e.g., by using Excel spreadsheet (Microsoft Inc. Seattle, USA) to a four parameter logistic model (4PL), or Hill-Slope model. The assay was used to test compounds of the present invention. […] Specific probes of formula (IP) used in the assay are: • P1. 9-Dimethylamino-11,11-dimethyl-1-(3-{methyl-[(6-oxo-5,6-dihydro-phenanthridin-2-ylcarbamoyl)-methyl]-carbamoyl}-propyl)-2,3,4,11-tetrahydro-naphtho[2,3-g]quinolinium trifluoroacetate; • P2. 9-Dimethylamino-11,11-dimethyl-1-[3-(3-{[(6-oxo-5,6-dihydro-phenanthridin-2-ylcarbamoyl)-methyl]-amino}-propylcarbamoyl)-propyl]-2,3,4,11-tetrahydro-naphtho[2,3-g]quinolinium trifluoroacetate; • P3. 9-Dimethylamino-11,11-dimethyl-1-[3-(6-{[(6-oxo-5,6-dihydro-phenanthridin-2-ylcarbamoyl)-methyl]-amino}-hexylcarbamoyl)-propyl]-2,3,4,11-tetrahydro-naphtho[2,3-g]quinolinium trifluoroacetate.

[2] = molecular target: PARP-1 (Homo sapiens (Human), UniProt P09874); settings: for DC50: read-out: PARP-1 (DC50 μM), probe P1, <0.25 = assay sensitivity limit; for Kd: read-out: PARP-1 (Kd μM), probe P3, <0.01 = assay sensitivity limit
Protocol: as §1, §2, §3
a compound of formula (IP):
as §4
serial dilutions of the test compound;
as §5, §6, §7, §8

[3] = molecular target: PARP-2 (Homo sapiens (Human), UniProt Q9UGN5); settings: probe P1; for DC50: read-out: PARP-2 (DC50 μM); for Kd: read-out: PARP-2 (Kd μM)
Protocol: as §1, §2, §3
a compound of formula (IP):
as §4
serial dilutions of the test compound;
as §5, §6, §7, §8

[4] = Pharmacokinetics and oral bioavailability in the mouse; type: in vivo; settings: for clearance / Vd / AUC / half-life: male, Balb, Nu/Nu, plasma; for clearance / Vd: IV bolus 10 mg/kg; for clearance / Vd / AUC / half-life / C-max (oral): mean; for clearance: read-out: CL (IV bolus); for Vd: read-out: Vdss (IV bolus); for AUC / half-life / C-max (oral): oral 10 mg/kg; for half-life: read-out: T½ (oral) (converted); for F on AUC: oral vs IV dose-normalized AUC, 10 mg/kg
Protocol: A single administration at the dose of 10 mg/kg was given and three male animals for each route were used. […] After capping and vortex mixing, the plate was centrifuged for 15 minutes at 4000 rpm. The supernatant was considered as final extract and injected onto the LC-MS-MS system (UPLC system: Waters Acquity using BEH C18 50*2.1 mm 1.7 μm analytical column; MS instrument: Waters TQD equipped with Electro-Spray source operating in positive ion mode). Lower limit of quantification is 5.0 ng/mL, upper limit of quantification is 5000 ng/mL. Non-compartmental method (linear trapezoidal rule and linear regression analysis of natural log-transformed plasma concentrations vs. time data) was used. Absolute bioavailability (F) was calculated from the ratio of average oral to IV (intravenous) dose-normalized plasma AUC (area under curve) values.

[5] = tested on: Capan-1 human pancreatic cancer tumors
Protocol: Fragments of Capan-1 human pancreatic cancer tumors were implanted subcutaneously. […] Each group included seven animals. The treatment started one day after randomization. Compounds of formula (I) were administered by oral route as a methocel suspension. Tumor dimension was measured regularly by calipers during the experiments and tumor mass was calculated as described in Simeoni M. et al., Cancer Res 2004, 64, 1094-1101.
Temozolomide was administered by oral route at the dose of 50 mg/kg on days 3, 4, 5, 6, 7 and 8. Tumor growth and body weight were measured every 3 days. Tumor growth was assessed by caliper. The two diameters were recorded and the tumor weight was calculated according to the following formula: length (mm)×width^2/2. […] This delay (T−C value) was defined as the difference of time (in days) required for the treatment group (T) and the control group (C) tumors to reach a predetermined size (1 g). Toxicity was evaluated on the basis of body weight reduction and animal survival rate.

[6] = tested on: hydrogen peroxide induced PAR formation in HeLa cells; test: cells; settings: Homo sapiens, read-out: PAR assay (IC50 μM)
Protocol: Cellular activity of PARP-1 inhibitors was assessed by measuring the inhibition of the hydrogen peroxide induced PAR formation in HeLa cells (ECACC). Cellular PAR levels were measured by immunocytochemistry, and quantified using an ArrayScan vTi instrument (Cellomics Thermo Scientific).
Studies were performed as follows: 6000 cells/well were seeded in 96 well plates (Perkin Elmer) in MEM/10% FCS and incubated for 24 hours at 37° C., 5% carbon dioxide. Test compounds were then added at the required concentration for 30 minutes. DNA damage was then induced adding hydrogen peroxide at the concentration of 0.1 mM for 15 minutes. Concentration curves were prepared in MEM/10% FCS from compound stocks in DMSO, and final DMSO concentration was 0.002% (v/v). Duplicate wells for each concentration point were prepared with a typical highest compound concentration of 20 μM and serial dilution 1:3. Plates were dried and fixed adding cold methanol-acetone (70:30) solution for 15 minutes at room temperature, fixing solution was aspired and wells were air dried for 5 minutes and then dehydrated in PBS. Non-specific binding sites were blocked by incubating wells for 30 minutes in PBS containing 5% (w/v) FBS 0.05% tween20. Wells were then incubated for 1 hour at room temperature in PBS containing anti PAR mouse monoclonal antibody (Anti-PAR, Mouse mAb 10H, Tulip Cat N° 1020) diluted 1:200 in blocking solution. After 3 washes in PBS, wells incubated in PBS (w/v) 5% FBS 0.05% Tween20 containing 2 μg/mL Cy2-conjugated Goat anti mouse secondary antibody (Amersham Pharmacia Biotech cat. N° PA 42002) (Absorption maximum 489 nm fluorescence maximum 506 nm) and 1 μg/mL DAPI (Absorption maximum 359 nm fluorescence maximum 461 nm) (4′,6-diamidino-2-phenyindole dilactate) (Sigma cat. N° D9564), a high sensitivity dye for nucleic acid staining. After washing further 3 times in PBS, cellular PAR immunoreactivity was assessed using the ArrayScan vTi instrument, with a Zeiss 10×0.5 N.A. objective, and applying the Cytotoxicity. V3 algorithm (Cellomics/Thermo Fisher) with a XF100 filter. At least 10 fields, corresponding to at least 900 cells, were read for each well.
X is the logarithm of concentration, IC50 is the response; IC50 starts at bottom and goes to top with a sigmoid shape.

[7] = tested on: ovarian cancer patients with confirmed BRCA-1 mutations; settings: phase I, monotherapy, preliminary data; cited from earlier work
[8] = temozolomide alone 50 mg/kg oral, days 3-8

Sequence of PARP-1 (P09874 whole entry): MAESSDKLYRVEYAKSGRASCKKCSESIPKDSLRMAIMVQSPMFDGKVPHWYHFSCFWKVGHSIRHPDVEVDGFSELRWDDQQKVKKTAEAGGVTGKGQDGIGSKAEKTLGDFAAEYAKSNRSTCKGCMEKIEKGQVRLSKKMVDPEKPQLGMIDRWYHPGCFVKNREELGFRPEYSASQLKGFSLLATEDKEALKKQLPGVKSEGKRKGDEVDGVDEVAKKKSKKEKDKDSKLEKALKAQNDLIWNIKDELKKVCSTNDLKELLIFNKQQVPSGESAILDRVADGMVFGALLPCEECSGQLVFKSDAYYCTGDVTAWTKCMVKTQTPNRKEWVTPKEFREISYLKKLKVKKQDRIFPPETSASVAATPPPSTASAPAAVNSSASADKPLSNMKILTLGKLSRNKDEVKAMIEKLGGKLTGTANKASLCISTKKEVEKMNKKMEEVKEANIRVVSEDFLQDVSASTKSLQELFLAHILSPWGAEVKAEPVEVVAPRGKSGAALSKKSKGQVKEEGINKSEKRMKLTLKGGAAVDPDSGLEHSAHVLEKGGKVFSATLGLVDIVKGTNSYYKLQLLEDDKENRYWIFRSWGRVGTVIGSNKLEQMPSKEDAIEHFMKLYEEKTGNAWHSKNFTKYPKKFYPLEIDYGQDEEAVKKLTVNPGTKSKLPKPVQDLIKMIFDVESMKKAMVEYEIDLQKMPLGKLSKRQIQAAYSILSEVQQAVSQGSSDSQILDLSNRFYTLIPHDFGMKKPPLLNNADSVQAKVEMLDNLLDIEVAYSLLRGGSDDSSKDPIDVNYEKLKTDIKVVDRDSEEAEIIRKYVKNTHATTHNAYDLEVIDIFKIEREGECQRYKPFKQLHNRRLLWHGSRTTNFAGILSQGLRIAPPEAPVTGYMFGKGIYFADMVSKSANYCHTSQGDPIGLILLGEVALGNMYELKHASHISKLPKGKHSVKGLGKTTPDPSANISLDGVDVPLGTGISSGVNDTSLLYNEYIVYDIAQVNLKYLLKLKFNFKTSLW
Sequence of PARP-2 (Q9UGN5 whole entry): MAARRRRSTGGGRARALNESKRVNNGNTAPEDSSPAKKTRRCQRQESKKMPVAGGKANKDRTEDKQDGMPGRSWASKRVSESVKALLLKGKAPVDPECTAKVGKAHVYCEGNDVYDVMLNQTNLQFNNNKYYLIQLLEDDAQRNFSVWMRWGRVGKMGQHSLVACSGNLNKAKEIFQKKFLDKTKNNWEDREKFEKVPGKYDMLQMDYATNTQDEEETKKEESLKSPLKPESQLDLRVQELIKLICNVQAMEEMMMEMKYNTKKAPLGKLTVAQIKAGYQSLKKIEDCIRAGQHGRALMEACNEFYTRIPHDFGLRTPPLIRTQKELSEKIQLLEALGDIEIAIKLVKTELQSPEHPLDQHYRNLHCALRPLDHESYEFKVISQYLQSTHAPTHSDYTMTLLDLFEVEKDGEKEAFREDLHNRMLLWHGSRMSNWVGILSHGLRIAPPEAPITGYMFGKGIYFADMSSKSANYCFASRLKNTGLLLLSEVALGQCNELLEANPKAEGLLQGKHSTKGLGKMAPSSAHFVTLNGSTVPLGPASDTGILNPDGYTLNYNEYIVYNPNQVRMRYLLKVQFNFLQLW
Sequence of PARP-3 (Q9Y6F1 whole entry): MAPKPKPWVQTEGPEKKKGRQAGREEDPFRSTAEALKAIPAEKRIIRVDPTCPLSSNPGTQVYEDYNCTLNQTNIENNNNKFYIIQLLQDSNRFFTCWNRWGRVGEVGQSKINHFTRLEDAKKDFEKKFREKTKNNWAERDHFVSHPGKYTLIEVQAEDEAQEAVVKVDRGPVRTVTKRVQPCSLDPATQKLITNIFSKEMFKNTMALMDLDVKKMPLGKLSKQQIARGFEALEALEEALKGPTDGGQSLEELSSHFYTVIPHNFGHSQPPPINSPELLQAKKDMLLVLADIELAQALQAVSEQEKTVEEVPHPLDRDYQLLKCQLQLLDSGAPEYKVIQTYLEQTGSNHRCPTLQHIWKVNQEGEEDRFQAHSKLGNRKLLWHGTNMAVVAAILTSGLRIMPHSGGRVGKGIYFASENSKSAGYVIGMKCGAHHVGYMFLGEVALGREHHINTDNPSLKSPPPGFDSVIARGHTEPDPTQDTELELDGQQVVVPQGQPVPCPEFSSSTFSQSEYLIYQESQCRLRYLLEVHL

DC50 [1] [µM]	DC50 [3] [µM]	Kd [3] [µM]	Structure (SMILES)	other results
0.58	1.5	0.78	NC(=O)c1cccc2[nH]n(C3CCNCC3)c(=O)c12 [Compound 1, 3-oxo-2-(piperidin-4-yl)-2,3-dihydro-1H-indazole-4-carboxamide]	DC50 [2]: < 0.25 µM; Kd [2]: 0.08 µM
> 10	2	1.49	NC(=O)c1cccc2[nH]n(C3CCN(C4CCCC4)CC3)c(=O)c12 [Compound 2, 2-(1-cyclopentylpiperidin-4-yl)-3-oxo-2,3-dihydro-1H-indazole-4-carboxamide]	
> 10	> 10		NC(=O)c1cccc2[nH]n(C3CCN(C4CCC(F)(F)CC4)CC3)c(=O)c12 [Compound 4, 2-[1-(4,4-difluorocyclohexyl)piperidin-4-yl]-3-oxo-2,3-dihydro-1H-indazole-4-carboxamide]	
2.15	0.91	0.54	Cn1c2cccc(C(N)=O)c2c(=O)n1C1CCN(C2CCCCC2)CC1 [Compound 5, 2-(1-cyclohexylpiperidin-4-yl)-1-methyl-3-oxo-2,3-dihydro-1H-indazole-4-carboxamide]	clearance [4]: 41 mL/min/kg; Vd [4]: 4.3 L/kg; AUC [4]: 10.6 µM·h; half-life [4]: 1.89 h; C-max (oral) [4]: 4.77 µM; F on AUC [4]: 109%
2.34	3.95	1.88	Cn1c2cccc(C(N)=O)c2c(=O)n1C1CCN(C2CCC(F)(F)CC2)CC1 [Compound 6, 2-[1-(4,4-difluorocyclohexyl)piperidin-4-yl]-1-methyl-3-oxo-2,3-dihydro-1H-indazole-4-carboxamide]	clearance [4]: 52.7 mL/min/kg; Vd [4]: 2.9 L/kg; AUC [4]: 3.87 µM·h; half-life [4]: 1.13 h; C-max (oral) [4]: 3.07 µM; F on AUC [4]: 49%; DC50 [2]: < 0.25 µM; Kd [2]: < 0.01 µM; IC50 [6]: 0.1 µM
2.58	< 0.25	0.05	Cn1c2cccc(C(N)=O)c2c(=O)n1C1CCN(C2CCCC2)CC1 [Compound 7, 2-(1-cyclopentylpiperidin-4-yl)-1-methyl-3-oxo-2,3-dihydro-1H-indazole-4-carboxamide]	
2.75	< 0.25	0.04	CN1CCC(n2[nH]c3cccc(C(N)=O)c3c2=O)CC1 [Compound 8, 2-(1-methylpiperidin-4yl)-3-oxo-2,3-dihydro-1H-indazole-4-carboxamide]	DC50 [2]: < 0.25 µM; Kd [2]: 0.14 µM; IC50 [6]: 0.6 µM
0.45	< 0.25	0.14	Cn1c2cccc(C(N)=O)c2c(=O)n1C1CCNCC1 [Compound 9, 1-methyl-3-oxo-2-(piperidin-4-yl)-2,3-dihydro-1H-indazole-4-carboxamide]	DC50 [2]: < 0.25 µM; Kd [2]: 0.014 µM; IC50 [6]: 0.05 µM
> 10	< 0.25	0.03	CC(C)N1CCC(n2c(=O)c3c(C(N)=O)cccc3n2C)CC1 [Compound 14, 1-methyl-3-oxo-2-[1-(propan-2-yl)piperidin-4-yl]-2,3-dihydro-1H-indazole-4-carboxamide]	
> 10	2.57		NC(=O)c1cccc2[nH]n(C3CCN(C4CCC4)CC3)c(=O)c12 [Compound 16, 2-(1-cyclobutylpiperidin-4-yl)-3-oxo-2,3-dihydro-1H-indazole-4-carboxamide]	
2.88	< 0.25		Cn1c2cccc(C(N)=O)c2c(=O)n1C1CCN(C2CCC2)CC1 [Compound 18, 2-(1-cyclobutylpiperidin-4-yl)-1-methyl-3-oxo-2,3-dihydro-1H-indazole-4-carboxamide]	
0.25	0.5	0.3	NC(=O)c1cc(F)cc2[nH]n(C3CCNCC3)c(=O)c12 [Compound 20, 6-fluoro-3-oxo-2-(piperidin-4-yl)-2,3-dihydro-1H-indazole-4-carboxamide]	Kd [1]: 0.05 µM; DC50 [2]: < 0.25 µM; Kd [2]: < 0.01 µM
0.22	< 0.25	0.07	Cn1c2cc(F)cc(C(N)=O)c2c(=O)n1C1CCNCC1 [Compound 21, 6-fluoro-1-methyl-3-oxo-2-(piperidin-4-yl)-2,3-dihydro-1H-indazole-4-carboxamide]	Kd [1]: 0.04 µM; DC50 [2]: < 0.25 µM; Kd [2]: < 0.01 µM
0.7	0.79	0.5	Cn1c2cc(F)cc(C(N)=O)c2c(=O)n1C1CCN(C2CCCCC2)CC1 [Compound 22, 2-(1-cyclohexylpiperidin-4-yl)-6-fluoro-1-methyl-3-oxo-2,3-dihydro-1H-indazole-4-carboxamide]	clearance [4]: 38.7 mL/min/kg; Vd [4]: 6.4 L/kg; AUC [4]: 12.8 µM·h; half-life [4]: 2.25 h; C-max (oral) [4]: 4.72 µM; F on AUC [4]: 150%; Kd [1]: 0.27 µM
> 10	5.94	5	NC(=O)c1cc(F)cc2[nH]n(C3CCN(C4CCCCC4)CC3)c(=O)c12 [Compound 23, 2-(1-cyclohexylpiperidin-4-yl)-6-fluoro-3-oxo-2,3-dihydro-1H-indazole-4-carboxamide]	
> 10	> 10		NC(=O)c1cccc2[nH]n(C3CCN(CC4CCCCC4)CC3)c(=O)c12 [Compound 31, 2-[1-(cyclohexylmethyl)piperidin-4-yl]-3-oxo-2,3-dihydro-1H-indazole-4-carboxamide]	
2.9	> 10		Cn1c2cccc(C(N)=O)c2c(=O)n1C1CCN(CC2CCCCC2)CC1 [Compound 33, 2-[1-(cyclohexylmethyl)piperidin-4-yl]-1-methyl-3-oxo-2,3-dihydro-1H-indazole-4-carboxamide]	
0.46	> 10		NC(=O)c1cccc2[nH]n(C3CCN(Cc4cccs4)CC3)c(=O)c12 [Compound 62, 3-oxo-2-[1-(thiophen-2-ylmethyl)piperidin-4-yl]-2,3-dihydro-1H-indazole-4-carboxamide]	DC50 [2]: < 0.25 µM; Kd [2]: 0.022 µM; IC50 [6]: 0.07 µM
1.42	3.56		Cn1c2cccc(C(N)=O)c2c(=O)n1C1CCN(Cc2cccs2)CC1 [Compound 63, 1-methyl-3-oxo-2-[1-(thiophen-2-ylmethyl)piperidin-4-yl]-2,3-dihydro-1H-indazole-4-carboxamide]	
> 10	> 10		NC(=O)c1cccc2[nH]n(C3CCN(CC4CC=CCC4)CC3)c(=O)c12 (stereo not drawn) [Compound 64, 2-[1-(cyclohex-3-en-1-ylmethyl)piperidin-4-yl]-3-oxo-2,3-dihydro-1H-indazole-4-carboxamide]	
1.78	4.19		Cn1c2cccc(C(N)=O)c2c(=O)n1C1CCN(CC2CC=CCC2)CC1 (stereo not drawn) [Compound 65, 2-[1-(cyclohex-3-en-1-ylmethyl)piperidin-4-yl]-1-methyl-3-oxo-2,3-dihydro-1H-indazole-4-carboxamide]	clearance [4]: 53.8 mL/min/kg; Vd [4]: 3.4 L/kg; AUC [4]: 4.06 µM·h; half-life [4]: 1.16 h; C-max (oral) [4]: 1.93 µM; F on AUC [4]: 50%
0.58	> 10		NC(=O)c1cccc2[nH]n(C3CCN(Cc4ccco4)CC3)c(=O)c12 [Compound 66, 2-[1-(furan-2-ylmethyl)piperidin-4-yl]-3-oxo-2,3-dihydro-1H-indazole-4-carboxamide]	
2.56	2.29		Cn1c2cccc(C(N)=O)c2c(=O)n1C1CCN(Cc2ccco2)CC1 [Compound 67, 2-[1-(furan-2-ylmethyl)piperidin-4-yl]-1-methyl-3-oxo-2,3-dihydro-1H-indazole-4-carboxamide]	
			O=C(c1cc(Cc2n[nH]c(=O)c3ccccc23)ccc1F)N1CCN(C(=O)C2CC2)CC1 [Olaparib]	partial responses [7]: 4 out of 10
			Cn1nnc2c(C(N)=O)ncn2c1=O [temozolomide]	BWL (%) [5, 8]: 2%; Max TGI (%) [5, 8]: 13%; Toxicity ([5]; temozolomide alone 50 mg/kg oral, days 3-8, seven animals per group): 0/7; T-C ([5]; temozolomide alone 50 mg/kg oral, days 3-8, time to reach 1 g): 1 days

Structure (SMILES)	DC50 [1] [µM]	DC50 [3] [µM]	Kd [3] [µM]	other results
NC(=O)c1cccc2[nH]n(C3CCN(C4CCCCC4)CC3)c(=O)c12 [Compound 3, 2-(1-cyclohexylpiperidin-4-yl)-3-oxo-2,3-dihydro-1H-indazole-4-carboxamide]	> 10	> 10		clearance [4]: 17.8 mL/min/kg; Vd [4]: 1.3 L/kg; AUC [4]: 14.3 µM·h; half-life [4]: 1.77 h; C-max (oral) [4]: 5.6 µM; F on AUC [4]: 67%; T-C (days) ([5]; cpd 3 200 mg/kg oral days 1-12 + temozolomide 50 mg/kg oral days 3-8, time to reach 1 g): superior
